Experiment [1] deals with T1, pseudo-kinase domain (JH2, amino-acids 536-812) of human V617F mutant JAK2 (Homo sapiens, UniProt O60674, F794H/V617F/W659A/W777A).
T1 construct: pseudo-kinase domain (JH2, amino-acids 536-812 with 3 surface mutations W659A, W777A, F794H); purchased BPS Bioscience 79498; host or cells: baculovirus expression system
As to the kind of experiment: JAK2 LanthaScreen JH2-V617F Binding Assay. The settings on record: 1 hour at 25° C. The essentials:
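TR-FRET tracer displacement: 0.26 nM protein, 50 nM tracer, 0.25 nM SA-Tb, 50 mM Tris pH 7.5, 10 mM MgCl2, 5 mM DTT; 1 h, 25° C. NSB = 2 mM ATP. IC50, 4-parameter curve.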

The target in experiment [2] is T2, pseudo-kinase domain (JH2, amino-acids 536-812) of human Wild Type JAK2 (Homo sapiens, UniProt O60674, F794H/W659A/W777A).
T2 construct: pseudo-kinase domain (JH2, amino-acids 536-812 with 3 surface mutations W659A, W777A, F794H); purchased BPS Bioscience 79463; host or cells: baculovirus expression system
As to the kind of experiment: JAK2 LanthaScreen JH2-WT Binding Assay. The settings on record: 1 hour at 25° C. The essentials: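 TR-FRET tracer displacement: IC50 from four-parameter dose-response fit. Reaction: compound, 0.145 nM biotinylated JH2 protein from baculovirus, 0.25 nM streptavidin-Tb and 50 nM tracer, 1 h at 25° C, 50 mM Tris pH 7.5 buffer. 2 mM ATP gave non-specific binding.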

The target of experiment [3] is T3, catalytic domain (JH1, amino acids 826-1132) of human JAK2 (Homo sapiens, UniProt O60674).
T3 construct: catalytic domain (JH1, amino acids 826-1132) of human JAK2; purchased Carna Biosciences 08-445-20N; host or cells: baculovirus expression system
In words: JAK2 LanthaScreen JH1 Binding Assay. Particulars: 2 hours at 25° C. The essentials: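 Reaction held 1.5 nM biotinylated FLAG-JAK2 JH1, 50 nM tracer and 0.5 nM streptavidin-Tb in pH 7.5 Tris buffer; 2 mM ATP defined nonspecific binding.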

The target of experiment [4] is T4, catalytic domain (JH1, amino acids 808-1132) of human JAK2 (Homo sapiens, UniProt O60674).
T4 construct: catalytic domain (JH1, amino acids 808-1132) of human JAK2; His (N); purchased BPS Bioscience 40450; host or cells: baculovirus expression system
As to the kind of experiment: JAK2 HTRF Enzyme Activity Assay. The experiment is classed as biochemical. Particulars: ATP 30 μM, read-out: ENZ 30UMATP. The essentials: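 IC50 values come from a four-parameter fit of HTRF signal (Eu-PY20 antibody/streptavidin-APC, EDTA-quenched). Reaction: 0.015 nM N-His JAK2 catalytic domain (baculovirus), 500 nM biotin-peptide, 30 μM or 1 mM ATP, Tris pH 7.5 buffer, 60 min, 25° C.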

For six compounds, IC50 results are on record in patent publication US11958861B2, “Spirocyclic lactams as JAK2 V617F inhibitors” (Incyte Corporation, priority 2021, dated 2024).

Where a name gives a salt, the structure may show the parent alone.

T1 sequence (O60674 536-812 V617F/W659A/W777A/F794H): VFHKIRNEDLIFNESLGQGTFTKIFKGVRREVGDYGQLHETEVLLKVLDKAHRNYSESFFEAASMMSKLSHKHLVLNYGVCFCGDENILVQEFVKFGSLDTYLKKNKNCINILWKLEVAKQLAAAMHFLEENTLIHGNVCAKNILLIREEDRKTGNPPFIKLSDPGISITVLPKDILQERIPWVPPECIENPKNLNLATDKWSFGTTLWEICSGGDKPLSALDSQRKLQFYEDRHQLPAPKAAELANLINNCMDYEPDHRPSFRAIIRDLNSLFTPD
T3 sequence (O60674 826-1132): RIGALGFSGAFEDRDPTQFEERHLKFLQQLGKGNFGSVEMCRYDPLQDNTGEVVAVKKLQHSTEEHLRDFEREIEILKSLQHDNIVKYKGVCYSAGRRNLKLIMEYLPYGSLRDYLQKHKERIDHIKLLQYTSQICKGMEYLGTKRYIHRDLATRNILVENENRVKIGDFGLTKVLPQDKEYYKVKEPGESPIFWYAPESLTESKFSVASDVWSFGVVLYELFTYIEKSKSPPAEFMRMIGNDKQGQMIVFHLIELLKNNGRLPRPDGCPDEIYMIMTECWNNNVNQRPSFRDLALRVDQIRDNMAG
T2 sequence (O60674 536-812 W659A/W777A/F794H): as the sequence (O60674 536-812 V617F/W659A/W777A/F794H) above, with F82V counted along it
T4 sequence (O60674 808-1132): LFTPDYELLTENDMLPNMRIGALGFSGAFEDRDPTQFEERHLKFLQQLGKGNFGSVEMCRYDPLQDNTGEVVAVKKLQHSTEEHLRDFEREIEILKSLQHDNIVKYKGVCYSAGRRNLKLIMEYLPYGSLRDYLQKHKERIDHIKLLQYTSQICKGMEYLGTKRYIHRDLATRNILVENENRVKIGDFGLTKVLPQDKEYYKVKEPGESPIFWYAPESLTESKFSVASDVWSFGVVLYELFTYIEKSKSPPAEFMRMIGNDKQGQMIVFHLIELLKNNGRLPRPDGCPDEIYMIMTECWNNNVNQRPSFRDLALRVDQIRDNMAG

On to `CN1C(=O)C2(CCN(C3(CC#N)CCC3)CC2)c2c1cnc1[nH]c(-c3cnn(C)c3)c(-c3ccc4c(cnn4C)c3)c21` [Example 31, 2-(1-(6-Methyl-1-(1-methyl-1H-indazol-5-yl)-2-(1-methyl-1H-pyrazol-4-yl)-7-oxo-6,7-dihydro-3H-spiro[dipyrrolo[2,3-b:3′,2′-d]pyridine-8,4′-piperidin]-1′-yl)cyclobutyl)acetonitrile, trifluoroacetate salt], for which the IC50 is at most 100 nM in experiment [1], at most 100 nM in experiment [2], 100 to 500 nM in experiment [3] and 100 to 500 nM in experiment [4].
In the case of `CN1C(=O)C2(CCN(C3(CC#N)CCC3)CC2)c2c1cnc1[nH]c(-c3cnn(CC(C)(C)O)c3)c(-c3ccc4c(cnn4C)c3)c21` [Example 32, 2-(1-(2-(1-(2-Hydroxy-2-methylpropyl)-1H-pyrazol-4-yl)-6-methyl-1-(1-methyl-1H-indazol-5-yl)-7-oxo-6,7-dihydro-3H-spiro[dipyrrolo[2,3-b:3′,2′-d]pyridine-8,4′-piperidin]-1′-yl)cyclobutyl)acetonitrile, trifluoroacetate salt], the IC50 is at most 100 nM in experiment [1], at most 100 nM in experiment [2], 100 to 500 nM in experiment [3] and 100 to 500 nM in experiment [4].
Take `CN1C(=O)C2(CCN(C3(CC#N)CCC3)CC2)c2c1cnc1[nH]c(-c3cnn(CC(F)(F)F)c3)c(-c3ccc4c(cnn4C)c3)c21` [Example 33, 2-(1-(6-Methyl-1-(1-methyl-1H-indazol-5-yl)-7-oxo-2-(1-(2,2,2-trifluoroethyl)-1H-pyrazol-4-yl)-6,7-dihydro-3H-spiro[dipyrrolo[2,3-b:3′,2′-d]pyridine-8,4′-piperidin]-1′-yl)cyclobutyl)acetonitrile, trifluoroacetate salt]: the IC50 in experiment [1] is at most 100 nM; in experiment [2], at most 100 nM; in experiment [3], 500 to 1250 nM; in experiment [4] it was 500 to 1250 nM.
Take `CCS(=O)(=O)c1ccc(-c2[nH]c3ncc4c(c3c2-c2ccc3c(cnn3C)c2)C2(CCN(C3(CC#N)CCC3)CC2)C(=O)N4C)cc1` [Example 35, 2-(1-(2-(4-(Ethylsulfonyl)phenyl)-6-methyl-1-(1-methyl-1H-indazol-5-yl)-7-oxo-6,7-dihydro-3H-spiro[dipyrrolo[2,3-b:3′,2′-d]pyridine-8,4′-piperidin]-1′-yl)cyclobutyl)acetonitrile, trifluoroacetate salt]: the IC50 was at most 100 nM in experiment [1], at most 100 nM in experiment [2], 500 to 1250 nM in experiment [3] and 500 to 1250 nM in experiment [4].
With `COCCn1cc(-c2[nH]c3ncc4c(c3c2-c2ccc3c(cnn3C)c2)C2(CCN(C3(CC#N)CCC3)CC2)C(=O)N4C)cn1` [Example 36, 2-(1-(2-(1-(2-Methoxyethyl)-1H-pyrazol-4-yl)-6-methyl-1-(1-methyl-1H-indazol-5-yl)-7-oxo-6,7-dihydro-3H-spiro[dipyrrolo[2,3-b:3′,2′-d]pyridine-8,4′-piperidin]-1′-yl)cyclobutyl)acetonitrile, trifluoroacetate salt], the IC50 in experiment [1] was at most 100 nM; in experiment [2], at most 100 nM; in experiment [3], 100 to 500 nM; in experiment [4], 100 to 500 nM.
In the case of `CN1C(=O)C2(CCN(C3(CC#N)CCC3)CC2)c2c1cnc1[nH]c(-c3cnn(C(C)(C)CO)c3)c(-c3ccc4c(cnn4C)c3)c21` [Example 37, 2-(1-(2-(1-(1-Hydroxy-2-methylpropan-2-yl)-1H-pyrazol-4-yl)-6-methyl-1-(1-methyl-1H-indazol-5-yl)-7-oxo-6,7-dihydro-3H-spiro[dipyrrolo[2,3-b:3′,2′-d]pyridine-8,4′-piperidin]-1′-yl)cyclobutyl)acetonitrile, trifluoroacetate salt], the IC50 in experiment [1] was at most 100 nM; in experiment [2], at most 100 nM; in experiment [3], 100 to 500 nM; in experiment [4], 100 to 500 nM.
